Read-outs that look alike come from different tables or passages of the source.

The target in assay [1] is T1, human muscarinic M4 receptor (Homo sapiens, UniProt P08173).
T1 construct: expressed in transfected cells
T1 sequence (P08173 1-479): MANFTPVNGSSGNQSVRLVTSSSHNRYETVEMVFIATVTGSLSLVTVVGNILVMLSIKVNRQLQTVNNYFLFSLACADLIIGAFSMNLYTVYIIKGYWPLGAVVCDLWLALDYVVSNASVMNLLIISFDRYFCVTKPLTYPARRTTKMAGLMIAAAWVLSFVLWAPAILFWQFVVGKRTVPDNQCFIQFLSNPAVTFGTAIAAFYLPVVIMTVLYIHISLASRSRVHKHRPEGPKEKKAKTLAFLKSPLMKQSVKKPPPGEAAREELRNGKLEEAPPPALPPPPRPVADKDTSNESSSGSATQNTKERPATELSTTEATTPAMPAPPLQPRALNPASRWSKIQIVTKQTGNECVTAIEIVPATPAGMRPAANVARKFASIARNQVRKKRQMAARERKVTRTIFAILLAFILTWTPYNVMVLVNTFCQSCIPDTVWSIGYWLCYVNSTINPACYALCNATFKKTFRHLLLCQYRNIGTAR
The assay is described as follows: Alphascreen Surefire phospho-ERK1/2 functional assay, M4. The class given is cell-based. The note with it: for EC50: read-out: pEC50 M4 (converted); for Emax: CHO, read-out: % Emax cf. ACh (M4), CHO cells stably expressing human M4; for Emax / % Emax cf. ACh (M4): Emax relative to ACh. As to the method:
(§1) ERK1/2 phosphorylation is a downstream consequence of both Gq/11 and Gi/o protein coupled receptor activation, making it highly suitable for the assessment of M1, M3 (Gq/11 coupled) and M2, M4 receptors (Gi/o coupled), rather than using different assay formats for different receptor subtypes. CHO cells stably expressing the human muscarinic M1, M2, M3 or M4 receptor were plated (25K/well) onto 96-well tissue culture plates in MEM-alpha+10% dialysed FBS. Once adhered, cells were serum-starved overnight. Agonist stimulation was performed by the addition of 5 μL agonist to the cells for 5 min (37° C.). Media was removed and 50 μL of lysis buffer added. After 15 min, a 4 μL sample was transferred to 384-well plate and 7 μL of detection mixture added. […]

Assay [2] addresses T2, human muscarinic M1 receptor (Homo sapiens, UniProt P11229).
T2 sequence (P11229 1-460): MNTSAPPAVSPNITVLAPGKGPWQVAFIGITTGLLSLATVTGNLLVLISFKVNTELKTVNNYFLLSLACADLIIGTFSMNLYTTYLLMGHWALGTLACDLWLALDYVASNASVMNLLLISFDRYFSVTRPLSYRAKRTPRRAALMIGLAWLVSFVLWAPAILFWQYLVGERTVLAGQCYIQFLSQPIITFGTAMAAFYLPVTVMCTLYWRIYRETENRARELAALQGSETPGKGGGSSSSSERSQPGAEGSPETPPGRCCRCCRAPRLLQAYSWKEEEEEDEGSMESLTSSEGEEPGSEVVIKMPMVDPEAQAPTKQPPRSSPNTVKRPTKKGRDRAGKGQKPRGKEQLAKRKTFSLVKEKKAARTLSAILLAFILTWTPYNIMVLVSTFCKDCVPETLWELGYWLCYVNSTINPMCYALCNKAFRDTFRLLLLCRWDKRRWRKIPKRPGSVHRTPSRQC
As to the kind of experiment: Alphascreen Surefire phospho-ERK1/2 functional assay, M1. It counts as cell-based. The following applies: for EC50 / pEC50 M1: agonist 5 min, 37° C.; for Emax: CHO, read-out: % Emax cf. ACh (M1), CHO cells stably expressing human M1; for Emax / % Emax cf. ACh (M1): Emax relative to ACh. As to the method:
as §1

Setting [3] is: CHO cells stably expressing human M4, agonist 5 min, 37° C.
Where [4] appears, read: CHO cells stably expressing human M1, read-out: pEC50 M1 (converted).
Setting [5] is: CHO cells stably expressing human M4.
Where [6] appears, read: CHO cells stably expressing human M1.
Setting [7] is: pEC50 M1, CHO cells stably expressing human M1.

Consider `Cc1noc(N2CCCC(N3CCC4(CC3)CNC(=O)O4)CC2)n1` (racemic) [10-3 Racemic mixture], for which the EC50 in assay [1] (setting [3]) was more than 20000 nM; in assay [2] (setting [4]), 372 nM. In addition, the Emax was 10% in assay [1] and 97% in assay [2].
For `CCN(C(C)=O)C1CCN(C2CCCN(c3nc(C)no3)CC2)CC1` (racemic) [10-11 Racemic mixture], in that order: 219 nM, 3980 nM, 101% and 56%.
In the case of `CCOC(=O)[C@H]1[C@@H]2CN(C3CC4(CCN(c5nc(C)no5)C4)C3)C[C@@H]21` (single isomer, unassigned) [2-3 Isomer 2], the results for the EC50 in assay [1] (setting [3]) and in assay [2] (setting [4]) were 513 nM and more than 20000 nM, respectively. Besides, the Emax in assay [1] is 32%; in assay [2] it was 9%.
In the case of `Cc1noc(N2CC3(CCC(N4CCC(n5cccn5)CC4)C3)C2)n1` (single isomer, unassigned) [3-1 Isomer 2], the EC50 in assay [1] (setting [3]) was 1230 nM; in assay [2] (setting [4]), 8320 nM. Also, the Emax came to 68% in assay [1] and 58% in assay [2].
Take `Cc1noc(N2CC3CC(C2)C3N2CCC(n3cccn3)CC2)n1` (single isomer, unassigned) [5-1 Isomer 1]: the EC50 is 1260 nM in assay [1] (setting [3]) and more than 20000 nM in assay [2] (setting [4]). The Emax was determined as 55% in assay [1] and 9% in assay [2].
As to `Cc1noc(N2C3CCC2CC(N2CCC4(CC2)CNC(=O)C4)C3)n1` (single isomer, unassigned) [6-2 Isomer 1], the “% Emax cf. ACh (M4)” value in assay [1] (setting [5]) is “(9) %”. For the same molecule, the EC50 in assay [1] (setting [3]) is more than 20000 nM; in assay [2] (setting [7]) it was 158 nM. Also, the “% Emax cf. ACh (M1)” value in assay [2] (setting [6]) is given as “(34) %”.
Consider `Cc1noc(N2C3CCC2CC(N2CCC4(CC2)CNC(=O)C4)C3)n1` (single isomer, unassigned) [6-2 Isomer 2], for which the “% Emax cf. ACh (M4)” value in assay [1] (setting [5]) is recorded as “(39) %”. Moreover, the EC50 in assay [1] (setting [3]) was 170 nM; in assay [2] (setting [7]) it was 63.1 nM. Further, in assay [2] (setting [6]), the “% Emax cf. ACh (M1)” value is given as “(81) %”.
Turning to `Cc1noc(N2C3CCC2CC(N2CCC4(CC2)CNC(=O)O4)C3)n1` (single isomer, unassigned) [6-4 Isomer 1], in assay [1] (setting [5]), the “% Emax cf. ACh (M4)” value is listed as “(15) %”. For the same molecule, the EC50 is more than 20000 nM in assay [1] (setting [3]) and 240 nM in assay [2] (setting [4]). Further, the “% Emax cf. ACh (M1)” value in assay [2] (setting [6]) was “(49) %”.
Turning to `Cc1noc(N2C3CCCC2CC(N2CCC(n4cccn4)CC2)C3)n1` (single isomer, unassigned) [8-1 Isomer 2], the figures for the EC50 in assay [1] (setting [3]) and in assay [2] (setting [4]) were 1260 nM and more than 20000 nM, respectively. The Emax in assay [1] was 38%; in assay [2], 24%.
As to `Cc1noc(N2C3CCCC2CC(N2CCC4(CC2)CNC(=O)C4)C3)n1` (single isomer, unassigned) [8-2 Isomer 1], the EC50 in assay [1] (setting [3]) was more than 20000 nM; in assay [2] (setting [4]) it was 214 nM. In addition, the Emax was found to be 9% in assay [1] and 30% in assay [2].
With `Cc1noc(N2C3CCCC2CC(N2CCC(C(=O)NC4(C)CCC4)CC2)C3)n1` (single isomer, unassigned) [8-4 Isomer 1], the EC50 was 646 nM in assay [1] (setting [3]) and 575 nM in assay [2] (setting [4]). Besides, the Emax in assay [1] came out at 76%; in assay [2], 98%.
For `Cc1noc(N2CCCC(N3CCC(n4cccn4)CC3)CC2)n1` (single isomer, unassigned) [10-1 Isomer 1], in that order: 129 nM, 1350 nM, 73% and 32%.
For the molecule `Cc1noc(N2CCCC(N3CCC(n4cccn4)CC3)CC2)n1` (single isomer, unassigned) [10-1 Isomer 2], the “% Emax cf. ACh (M4)” value in assay [1] (setting [5]) is “(72) %”. Moreover, the EC50 was 525 nM in assay [1] (setting [3]) and 6610 nM in assay [2] (setting [4]). The “% Emax cf. ACh (M1)” value in assay [2] (setting [6]) was “(43) %”.
For the molecule `Cc1noc(N2CCCC(N3CCC4(CC3)CNC(=O)C4)CC2)n1` (single isomer, unassigned) [10-2 Isomer 2], in assay [1] (setting [5]), the “% Emax cf. ACh (M4)” value was “(15) %”. In assay [1] (setting [3]), the “pEC50 M4” value was less than 4.70. The “% Emax cf. ACh (M1)” value in assay [2] (setting [6]) is on record as “(53) %”. Further, the EC50 in assay [2] (setting [4]) was 490 nM.
With `CCC1NC(=O)OC12CCN(C1CCCN(c3nc(C)no3)CC1)CC2` (single isomer, unassigned) [10-4 Isomer 1], the “% Emax cf. ACh (M4)” value in assay [1] (setting [5]) was “(85) %”. Also, the values for the EC50 in assay [1] (setting [3]) and in assay [2] (setting [4]) were 100 nM and 676 nM, respectively. For the same molecule, the “% Emax cf. ACh (M1)” value in assay [2] (setting [6]) is “(123) %”.
As for `CCC1NC(=O)OC12CCN(C1CCCN(c3nc(C)no3)CC1)CC2` (single isomer, unassigned) [10-4 Isomer 2], the “% Emax cf. ACh (M4)” value in assay [1] (setting [5]) was “(64) %”. Further, the EC50 in assay [1] (setting [3]) is 23.4 nM; in assay [2] (setting [4]) it was 55 nM. The “% Emax cf. ACh (M1)” value in assay [2] (setting [6]) is recorded as “(58) %”.
In the case of `CCC1NC(=O)OC12CCN(C1CCCN(c3nc(C)no3)CC1)CC2` (single isomer, unassigned) [10-4 Isomer 3], the “% Emax cf. ACh (M4)” value in assay [1] (setting [5]) is “(71) %”. For the same molecule, the EC50 is 2190 nM in assay [1] (setting [3]) and 9330 nM in assay [2] (setting [4]). The “% Emax cf. ACh (M1)” value in assay [2] (setting [6]) is “(81) %”.
As for `CCC1NC(=O)OC12CCN(C1CCCN(c3nc(C)no3)CC1)CC2` (single isomer, unassigned) [10-4 Isomer 4], the “% Emax cf. ACh (M4)” value in assay [1] (setting [5]) is given as “(36) %”. Also, the EC50 in assay [1] (setting [3]) was 871 nM; in assay [2] (setting [4]) it was more than 20000 nM. The “% Emax cf. ACh (M1)” value in assay [2] (setting [6]) is “(18) %”.
Consider `Cc1noc(N2CCCC(N3CCC4(CC3)OC(=O)NC4(C)C)CC2)n1` (single isomer, unassigned) [10-5 Isomer 1], for which the EC50 is 219 nM in assay [1] (setting [3]) and more than 20000 nM in assay [2] (setting [4]). The Emax worked out at 33% in assay [1] and 21% in assay [2].
Turning to `Cc1noc(N2CCCC(N3CCC(N4C[C@H](F)C[C@@H]4CO)CC3)CC2)n1` (single isomer, unassigned) [10-7 Isomer 2], the “% Emax cf. ACh (M4)” value in assay [1] (setting [5]) is recorded as “(76) %”. Also, the values for the EC50 in assay [1] (setting [3]) and in assay [2] (setting [4]) were 398 nM and 4270 nM, respectively. Further, the “% Emax cf. ACh (M1)” value in assay [2] (setting [6]) is “(70) %”.
Take `Cc1noc(N2CCCC(N3CCC(N4CC(F)(F)C[C@@H]4CO)CC3)CC2)n1` (single isomer, unassigned) [10-8 Isomer 1]: the EC50 in assay [1] (setting [3]) is 93.3 nM; in assay [2] (setting [4]), 676 nM. For the same molecule, the Emax in assay [1] worked out at 91%; in assay [2], 37%.
`Cc1noc(N2CCCC(N3CCC(N4CC(F)(F)C[C@@H]4CO)CC3)CC2)n1` (single isomer, unassigned) [10-8 Isomer 2]: the “% Emax cf. ACh (M4)” value in assay [1] (setting [5]) was “(73) %”. Further, the EC50 is 295 nM in assay [1] (setting [3]) and 1550 nM in assay [2] (setting [4]). Moreover, in assay [2] (setting [6]), the “% Emax cf. ACh (M1)” value is “(35) %”.
In the case of `CC[C@H]1CCC(=O)N1C1CCN(C2CCCN(c3nc(C)no3)CC2)CC1` (single isomer, unassigned) [10-9 Isomer 2], the EC50 in assay [1] (setting [3]) was 479 nM; in assay [2] (setting [4]) it was 1320 nM. Besides, the Emax in assay [1] was determined as 56%; in assay [2], 53%.
`Cc1noc(N2CCCC(N3CCC(N4CCCC4c4cnn(C)c4)CC3)CC2)n1` (single isomer, unassigned) [10-10 Isomer 1b]: the values for the EC50 in assay [1] (setting [3]) and in assay [2] (setting [4]) were 513 nM and more than 20000 nM, respectively. Also, the Emax in assay [1] was 56%. The “% Emax cf. ACh (M1)” value in assay [2] (setting [6]) is on record as “(6) %”.
For `Cc1noc(N2CCCC(N3CCC(N4CCCC4c4cnn(C)c4)CC3)CC2)n1` (single isomer, unassigned) [10-10 Isomer 2a], the “% Emax cf. ACh (M4)” value in assay [1] (setting [5]) is recorded as “(52) %”. The EC50 in assay [1] (setting [3]) is 1450 nM. Also, in assay [2] (setting [6]), the “% Emax cf. ACh (M1)” value was “(3) %” and the “pEC50 M1” value was less than 4.70.
For `Cc1noc(N2CCCC(N3CCC(N4CCCC4c4cnn(C)c4)CC3)CC2)n1` (single isomer, unassigned) [10-10 Isomer 2b], in that order: “(72) %”, 316 nM, “(14) %” and less than 4.70.

Values taken from US10858352B2, “Pharmaceutical compounds” (Heptares Therapeutics Limited, priority 2018, dated 2020).
